Measured values from patent US20210386367A1, “DEVICES AND SYSTEMS FOR GASTROINTESTINAL MICROBIOME DETECTION AND MANIPULATION” (Progenity, Inc., priority 2018, published 2021).
Converted amounts (≈) assume the structure as drawn.

Assays:
SIBO Bacteria = settings: cited from earlier work
[1] = in vivo, po, 10 mg/kg; cited from earlier work
[2] = test system: E. coli spontaneous mutants; experiment: Broth microdilution MIC of spontaneous mutants; format: cell-based, Escherichia coli
Experimental: (§1) Select isolates were subcultured onto agar containing drug at the selection concentration, were identified by MALDI, and were frozen for broth microdilution MIC testing as described below.
(§2) To determine whether colonies growing on drug selection plates had elevated MIC values to the selecting antibiotic, susceptibility testing by broth microdilution was conducted on isolated mutants following methodology recommended by CLSI (1), (2), and (3) “Performance Standards for Antimicrobial Susceptibility Testing; Twenty-Eighth Informational Supplement.,” CLSI document M100-S28, 2018.
(§3) All wells in columns 2 through 12 of a standard 96-well microdilution plate (Costar 3795) were filled with 150 μL of the appropriate diluent. Then, 300 μL of the test agents were added to the wells of column 1 of the plates at […] the highest final concentration to be tested. Serial two-fold dilutions were made across the rows through column 11 using the Biomek 2000. The wells of column 12 contained no drug and served as the growth control wells. This plate served as the “mother plate” from which selected MIC assay plates or “daughter plates” were made.
(§4) 2 μL of drug solution from each well of a mother plate was added to each corresponding well of the daughter plate in a single step. A standardized inoculum of each aerobic test organism was prepared per CLSI methods to equal a 0.5 McFarland standard, followed by a dilution of 1:20 in MHB II. The plates were then inoculated with 10 μL of the diluted inoculum using the Biomek 2000 from low to high drug concentration, resulting in a final concentration of approximately 5×10^5 CFU/mL. An un-inoculated plate was incubated for the purpose of assessing solubility of the drug in the test media.
(§5) The plates for the aerobic tests were stacked 3-4 high, covered with a sterile lid on the top plate, and incubated aerobically at 35° C. for 18-20 hr. The MIC was recorded as the lowest concentration of drug that inhibited visible growth of the organism.

[3] = test system: Streptococcus spp. spontaneous mutants; experiment: organism not typed; format: cell-based
Experimental: as §1, §2, §3, §4, §5

[4] = test system: E. coli spontaneous mutants; settings: E. coli ATCC 25922; CLSI QC range shown in parentheses; cited from earlier work
[5] = test system: Streptococcus spp. spontaneous mutants; settings: S. pneumoniae ATCC 49619; CLSI QC range shown in parentheses; cited from earlier work
Clostridium spp. = experiment: Agar dilution MIC, 10 clinical isolates; format: cell-based
E. coli ATCC 25922 = experiment: Broth microdilution MIC (time-kill study); format: cell-based, Escherichia coli; settings: Escherichia coli, ATCC25922; E. coli ATCC 25922; read-out: MIC
[6] = test system: E. coli ATCC 35218 (TEM-1 β-lactamase producer); experiment: Broth microdilution MIC (time-kill study); format: cell-based, Escherichia coli; settings: Escherichia coli, ATCC35218
E. coli MMX 1312 = experiment: Broth microdilution MIC (time-kill study); format: cell-based, Escherichia coli; settings: Escherichia coli, MMX1312; E. coli MMX 1312; read-out: MIC
S. pneumoniae ATCC 49619 = experiment: Broth microdilution MIC (time-kill study); format: cell-based, Streptococcus pneumoniae; settings: Streptococcus pneumoniae, ATCC49619; S. pneumoniae ATCC 49619; read-out: MIC
S. pyogenes ATCC 49399 = experiment: Broth microdilution MIC (time-kill study); format: cell-based, Streptococcus pyogenes; settings: Streptococcus pyogenes, ATCC49399; S. pyogenes ATCC 49399; read-out: MIC
S. agalactiae ATCC 13813 = experiment: Broth microdilution MIC (time-kill study); format: cell-based, Streptococcus agalactiae; settings: Streptococcus agalactiae, ATCC13813
B. fragilis ATCC 25285 [7] = experiment: Broth microdilution MIC (time-kill study); format: cell-based, Bacteroides fragilis; settings: Bacteroides fragilis, ATCC25285; B. fragilis MMX 123 ATCC 25285; read-out: MIC
B. vulgatus ATCC 8482 = experiment: Broth microdilution MIC (time-kill study); format: cell-based, Bacteroides vulgatus; settings: Phocaeicola vulgatus, ATCC8482; B. vulgatus ATCC 8482; read-out: MIC
B. ovatus MMX 3503 = experiment: Broth microdilution MIC (time-kill study); format: cell-based, Bacteroides ovatus; settings: Bacteroides ovatus, MMX3503; B. ovatus MMX 3504 (so in the source); read-out: MIC
B. fragilis ATCC 25285 [8] = settings: B. fragilis MMX 123 ATCC 25285; cited from earlier work

## C[C@@H](O)[C@H]1C(=O)N2C(C(=O)O)=C(S[C@@H]3CN[C@H](C(=O)Nc4cccc(C(=O)O)c4)C3)[C@H](C)[C@H]12 [ertapenem]
SIBO Bacteria
  activity against SIBO organisms: active against SIBO organisms
[1]
  Rat oral exposure (Dose): 0.39 μM*h at 10

## CN(C)[C@@H]1C(O)=C(C(N)=O)C(=O)[C@@]2(O)C(O)=C3C(=O)c4c(O)cccc4[C@@](C)(O)[C@H]3C[C@@H]12 [TET]
[2]; E. coli ATCC 25922, selected on rifaximin 4X MIC, Colony A
  MIC: 0.5 µg/mL
[2]; E. coli ATCC 25922, selected on rifaximin 4X MIC, Colony B
  MIC: 1 µg/mL
[2]; E. coli ATCC 25922, selected on rifaximin 8X MIC, Colony A
  MIC: 1 µg/mL
[2]; E. coli ATCC 25922, selected on rifaximin 8X MIC, Colony B
  MIC: 1 µg/mL
[2]; E. coli ATCC 25922 Parent (Table 52)
  MIC: 1 µg/mL
[2]; E. coli ATCC 35218, selected on rifaximin 4X MIC, Colony A
  MIC: 2 µg/mL
[2]; E. coli ATCC 35218, selected on rifaximin 4X MIC, Colony B
  MIC: 1 µg/mL
[2]; E. coli ATCC 35218, selected on rifaximin 8X MIC, Colony A
  MIC: 0.5 µg/mL
[2]; E. coli ATCC 35218, selected on rifaximin 8X MIC, Colony B
  MIC: 2 µg/mL
[2]; E. coli ATCC 35218 Parent (Table 52)
  MIC: 1 µg/mL
[2]; E. coli MMX 1312, selected on ceftriaxone 4X MIC, Colony A
  MIC: >16 µg/mL
[2]; E. coli MMX 1312, selected on ceftriaxone 4X MIC, Colony B
  MIC: >16 µg/mL
[2]; E. coli MMX 1312, selected on ceftriaxone 4X MIC, Colony C
  MIC: >16 µg/mL
[2]; E. coli MMX 1312, selected on ceftriaxone 8X MIC, Colony A
  MIC: >16 µg/mL
[2]; E. coli MMX 1312, selected on ceftriaxone 8X MIC, Colony B
  MIC: >16 µg/mL
[2]; E. coli MMX 1312, selected on ceftriaxone 8X MIC, Colony C
  MIC: >16 µg/mL
[2]; E. coli MMX 1312, selected on rifaximin 4X MIC, Colony A
  MIC: >16 µg/mL
[2]; E. coli MMX 1312, selected on rifaximin 4X MIC, Colony B
  MIC: >16 µg/mL
[2]; E. coli MMX 1312, selected on rifaximin 8X MIC, Colony A
  MIC: >16 µg/mL
[2]; E. coli MMX 1312, selected on rifaximin 8X MIC, Colony B
  MIC: >16 µg/mL
[2]; E. coli MMX 1312 Parent
  MIC: >16 µg/mL
[2]; E. coli MMX 1312 Parent (Table 49)
  MIC: >16 µg/mL
[2]; E. coli MMX 1312 Parent (Table 52)
  MIC: >16 µg/mL
[2]; E. coli MMX 1312 mutant selected on meropenem 4X MIC, colony A
  MIC: >16 µg/mL
[2]; E. coli MMX 1312 mutant selected on meropenem 4X MIC, colony B
  MIC: >16 µg/mL
[2]; E. coli MMX 1312 mutant selected on meropenem 4X MIC, colony C
  MIC: 4 µg/mL
[2]; E. coli MMX 1312 mutant selected on meropenem 8X MIC, colony A
  MIC: >16 µg/mL
[2]; E. coli MMX 1312 mutant selected on meropenem 8X MIC, colony B
  MIC: >16 µg/mL
[2]; E. coli MMX 1312 mutant selected on meropenem 8X MIC, colony C
  MIC: >16 µg/mL
[3]; S. agaloctiae ATCC 13813, selected on rifaximin 4X MIC, Colony A
  MIC: 0.12 µg/mL (≈ 0.27 µM)
[3]; S. agaloctiae ATCC 13813, selected on rifaximin 4X MIC, Colony B
  MIC: 0.12 µg/mL (≈ 0.27 µM)
[3]; S. agaloctiae ATCC 13813, selected on rifaximin 8X MIC, Colony A
  MIC: 0.12 µg/mL (≈ 0.27 µM)
[3]; S. agaloctiae ATCC 13813, selected on rifaximin 8X MIC, Colony B
  MIC: 0.25 µg/mL (≈ 0.563 µM)
[3]; S. agaloctiae ATCC 13813 Parent
  MIC: 0.12 µg/mL (≈ 0.27 µM)
[3]; S. pneumoniae ATCC 49619, selected on rifaximin 4X MIC, Colony A
  MIC: 0.06 µg/mL (≈ 0.135 µM)
[3]; S. pneumoniae ATCC 49619, selected on rifaximin 4X MIC, Colony B
  MIC: 0.06 µg/mL (≈ 0.135 µM)
[3]; S. pneumoniae ATCC 49619, selected on rifaximin 8X MIC, Colony A
  MIC: 0.06 µg/mL (≈ 0.135 µM)
[3]; S. pneumoniae ATCC 49619, selected on rifaximin 8X MIC, Colony B
  MIC: 0.06 µg/mL (≈ 0.135 µM)
[3]; S. pneumoniae ATCC 49619 Parent
  MIC: 0.12 µg/mL (≈ 0.27 µM)
[3]; S. pyogenes ATCC 49399, selected on rifaximin 4X MIC, Colony A
  MIC: 0.12 µg/mL (≈ 0.27 µM)
[3]; S. pyogenes ATCC 49399, selected on rifaximin 4X MIC, Colony B
  MIC: 0.12 µg/mL (≈ 0.27 µM)
[3]; S. pyogenes ATCC 49399, selected on rifaximin 8X MIC, Colony A
  MIC: 0.12 µg/mL (≈ 0.27 µM)
[3]; S. pyogenes ATCC 49399, selected on rifaximin 8X MIC, Colony B
  MIC: 0.12 µg/mL (≈ 0.27 µM)
[3]; S. pyogenes ATCC 49399 Parent
  MIC: 0.12 µg/mL (≈ 0.27 µM)
[4]
  MIC, CLSI QC range: (0.5-2) μg/mL
[5]
  MIC, CLSI QC range: (0.06-0.5) μg/mL

## Cc1ncc([N+](=O)[O-])n1CCO [metronidazole, Metronidazole]
Clostridium spp.
  relative activity among drugs tested: meropenem and metronidazole had similar activity
E. coli ATCC 25922
  MIC: > 32 µg/mL
[6]
  MIC: > 32 µg/mL
E. coli MMX 1312
  MIC: > 32 µg/mL
S. pneumoniae ATCC 49619
  MIC: > 32 µg/mL
S. pyogenes ATCC 49399
  MIC: > 32 µg/mL
S. agalactiae ATCC 13813
  MIC: > 32 µg/mL
B. fragilis ATCC 25285 [7]
  MIC: 0.5 µg/mL (≈ 2.92 µM)
B. vulgatus ATCC 8482
  MIC: 0.5 µg/mL (≈ 2.92 µM)
B. ovatus MMX 3503
  MIC: 0.5 µg/mL (≈ 2.92 µM)
B. fragilis ATCC 25285 [8]
  CLSI QC range (MIC): (0.25-2) μg/mL
